{
  "source": "patent US9968541B2",
  "about": "“Optical treatment methods” (ON Light Sciences Inc., priority 2011, dated 2018)",
  "key": {"[1]": {"test_system": "cavitation-induced whitening immediately after laser treatment of tattoos", "experiment": "Pilot study: topical perfluorodecalin by cotton swab prior to each laser pass in tattoo removal", "format": "in vivo, patients", "description": "Results of a pilot study related to the disclosure will be first released publicly in April 2012. The pilot study included tattoo removal with repeated laser exposures in one session, in which the need for 20-minute treatment intervals was eliminated. The pilot study was conducted at the Laser & Skin Surgery Center of New York (New York, N.Y.), under the direction of Roy G. Geronemus MD. […] A treatment delay of twenty minutes for resolution of whitening limited practicality of the technique, requiring up to eighty minutes of treatment time per visit. Medical grade, sterile perfluorodecalin, an inert, non-toxic liquid fluorocarbon with properties including optical clarity and gas-carrying capacity, was evaluated in the pilot study in an effort to speed resolution of cavitation-induced whitening immediately after laser treatment of tattoos. Perfluorodecalin may increase the optical penetration of lasers. The pilot study was performed in consenting patients with unwanted tattoos. Each tattoo was treated in whole or part with topical perfluorodecalin by cotton swab prior to each laser pass. Lasers and settings were selected by a dermatologist. During and after treatments, extent and duration of whitening reaction was assessed as well as appearance of adverse effects, including pigmentary change or scarring. […] In fifteen tattoos, perfluorodecalin was applied prior to each laser pass and the tattoo was treated with three Q-switched ruby laser passes immediately following one another in a single session. In five tattoos, a portion was treated with perfluorodecalin prior to a single pass of Q-switched ruby or Nd:YAG laser. […] After each laser pass, the whitening reaction resolved within five seconds of perfluorodecalin application. All treatments were well-tolerated with local anesthesia."}, "[2]": {"details": "cited from earlier work"}, "[3]": {"details": "as described by Tsai; cited from earlier work"}},
  "note": "Entries after “also recorded” stand apart in the source; their conditions may differ.",
  "data": [
    {"smiles": "FC1(F)C(F)(F)C(F)(F)C2(F)C(F)(F)C(F)(F)C(F)(F)C(F)(F)C2(F)C1(F)F", "note": "(stereo not drawn) [perfluorodecalin]", "values": [
      {"measurement": "time for whitening reaction to resolve after perfluorodecalin application", "setting": "[1]; after each laser pass, Q-switched ruby or Nd:YAG laser, topical by cotton swab, patients' tattoos", "result": "five"},
      {"measurement": "adverse effects (including pigmentary change or scarring)", "setting": "[1]; follow-up at 3-6 weeks", "result": "no adverse effects occurred"},
      {"measurement": "healing (amount of blistering, crusting or other changes) compared with previous treatments", "setting": "[1]; subject-reported", "result": "normal to improved healing"},
      {"measurement": "resolution of post-laser whitening", "setting": "[1]; topical application with cotton swab, laser therapy of tattoos", "result": "effectively resolve whitening in laser therapy within seconds; also recorded: resolves post-laser whitening within seconds"},
      {"measurement": "treatment time for multiple passes in a single session", "setting": "[1]; up to four passes in a single session, compared to about 80 minutes with R20", "result": "about 5 minutes"},
      {"measurement": "tolerability of treatments", "setting": "[1]; with local anesthesia, perfluorodecalin prior to each laser pass", "result": "well-tolerated"},
      {"measurement": "solubility in water", "setting": "[2]; as described by Tsai", "result": "very low solubility in water"},
      {"measurement": "thermal stability (stable up to)", "setting": "[2]; generally regarded", "result": "about 400 °C"},
      {"measurement": "toxicity", "setting": "[3]", "result": "non-toxic"}
    ]}
  ]
}
